Holding throughout (assay type): biochemical
The test system of experiment [1] is serotonine (5-HT) reuptake in synaptosomes. Kind of experiment: Inhibition of 5-HT reuptake in synaptosomes. Conditions: 3H-5-HT, read-out: 5-HT-uptake IC50. On the procedure:
(§1) Compounds were tested for their ability to inhibit the reuptake of the monoamine neurotransmitters dopamine (DA) noradrenaline (NA) and serotonine (5-HT) in synaptosomes as described in WO 97/16451 (NeuroSearch A/S).
(§2) The test values are given as IC50 (the concentration (μM) of the test substance which inhibits the specific binding of ^3H-DA, ^3H-NA, or ^3H-5-HT by 50%).

Experiment [2] relates to dopamine (DA) reuptake in synaptosomes. Briefly: Inhibition of DA reuptake in synaptosomes. Conditions: 3H-DA, read-out: DA-uptake IC50. As to the method: as §1, §2
The subject of experiment [3] is noradrenaline (NA) reuptake in synaptosomes. Briefly: Inhibition of NA reuptake in synaptosomes. As to conditions: 3H-NA, read-out: NA-uptake IC50. On the procedure:
as §1, §2

Counter-ions that a name gives are not always drawn.

With `COc1cc2ccc(O[C@@H]3C[C@H]4CC[C@@H](C3)N4)cc2oc1=O` [Compound 1.1, Exo-7-[(-8-azabicyclo[3.2.1]octan-3-yl)oxy]-3-methoxy-chromen-2-one hydrochloride], the IC50 (commonly the point on the concentration scale where inhibition reaches its midpoint) came out at 2.9 nM in experiment [1], 70 nM in experiment [2] and 3.8 nM in experiment [3].

The record behind these values is patent US9133184B2, “Chromen-2-one derivatives and their use as monoamine neurotransmitter re-uptake inhibitors” (ANIONA APS, priority 2010, dated 2015).
